Key:
Format in all cases: in vivo
[1] = system: Zea mays (ZEAMX); assay: Cold stress test on crop plants, spray application in greenhouse, visual damage rating; details: 25 g/ha, mean of three results
Method: Seeds of monocotyledonous and dicotyledonous crop plants were placed in sandy loam in wood-fiber pots, covered with soil and cultivated in a greenhouse under good growth conditions. The test plants were treated at the early leaf stage (BBCH10-BBCH13). To ensure uniform water supply before commencement of stress, the potted plants were supplied with the maximum amount of water immediately beforehand by dam irrigation and, after application, transferred in plastic inserts in order to prevent subsequent, excessively rapid drying. The inventive compounds, formulated in the form of wettable powders (WP), wettable granules (WG), suspension concentrates (SC) or emulsion concentrates (EC), were sprayed onto the green parts of the plants as an aqueous suspension at an equivalent water application rate of 600 l/ha with addition of 0.2% wetting agent (agrotin). Substance application was followed immediately by stress treatment of the plants (cold or drought stress). For cold stress treatment, the plants were kept under the following controlled conditions: “day”: 12 hours with illumination at 8° C. “night”: 12 hours without illumination at 1° C. The duration of the respective stress phases was guided mainly by the state of the untreated, stressed control plants and thus varies from crop to crop. It was ended (by re-irrigating or transfer to a greenhouse with good growth conditions) as soon as irreversible damage is observed on the untreated, stressed control plants. In the case of dicotyledonous crops, for example oilseed rape and soya, the duration of the drought stress phase was between 3 and 5 days, in the case of monocotyledonous crops, for example wheat, barley or corn, between 6 and 10 days. The duration of the cold stress phase varied between 12 and 14 days. The end of the stress phase was followed by an approx. 5-7-day recovery phase, during which the plants were once again kept under good growth conditions in a greenhouse. […] The intensity of damage was first assessed as a percentage (100%=plants have died, 0%=like control plants). […]

[2] = system: Brassica napus (BRSNS); assay: Drought stress test on crop plants, spray application in greenhouse, visual damage rating; details: 50 g/ha, mean of three results
Method: Seeds of monocotyledonous and dicotyledonous crop plants were placed in sandy loam in wood-fiber pots, covered with soil and cultivated in a greenhouse under good growth conditions. The test plants were treated at the early leaf stage (BBCH10-BBCH13). To ensure uniform water supply before commencement of stress, the potted plants were supplied with the maximum amount of water immediately beforehand by dam irrigation and, after application, transferred in plastic inserts in order to prevent subsequent, excessively rapid drying. The inventive compounds, formulated in the form of wettable powders (WP), wettable granules (WG), suspension concentrates (SC) or emulsion concentrates (EC), were sprayed onto the green parts of the plants as an aqueous suspension at an equivalent water application rate of 600 l/ha with addition of 0.2% wetting agent (agrotin). Substance application was followed immediately by stress treatment of the plants (cold or drought stress). For cold stress treatment, the plants were kept under the following controlled conditions: Drought stress was induced by gradual drying out under the following conditions: “day”: 14 hours with illumination at 26° C. “night”: 10 hours without illumination at 18° C. The duration of the respective stress phases was guided mainly by the state of the untreated, stressed control plants and thus varies from crop to crop. It was ended (by re-irrigating or transfer to a greenhouse with good growth conditions) as soon as irreversible damage is observed on the untreated, stressed control plants. In the case of dicotyledonous crops, for example oilseed rape and soya, the duration of the drought stress phase was between 3 and 5 days, in the case of monocotyledonous crops, for example wheat, barley or corn, between 6 and 10 days. The duration of the cold stress phase varied between 12 and 14 days. The end of the stress phase was followed by an approx. 5-7-day recovery phase, during which the plants were once again kept under good growth conditions in a greenhouse. In order to rule out any influence of the effects observed by any fungicidal action of the test compounds, it was additionally ensured that the tests proceed without fungal infection and without infection pressure. After the recovery phase had ended, the intensities of damage were rated visually compared to untreated, unstressed controls of the same age (in the case of drought stress) or the same growth stage (in the case of cold stress). The intensity of damage was first assessed as a percentage (100%=plants have died, 0%=like control plants). These values were then used to calculate the efficacy of the test compounds (=percentage reduction in the intensity of damage as a result of substance application) by the following formula: [formula] EF: efficacy (%) DVus: damage value of the untreated, stressed control DVts: damage value of the plants treated with test compound The tables below list mean values in each case from three results of the same test. Effects of selected compounds of the formula (I) under drought stress: BRSNS=Brassica napus

[3] = system: Zea mays (ZEAMX); assay: as above; details: 25 g/ha, mean of three results
Method: Seeds of monocotyledonous and dicotyledonous crop plants were placed in sandy loam in wood-fiber pots, covered with soil and cultivated in a greenhouse under good growth conditions. The test plants were treated at the early leaf stage (BBCH10-BBCH13). To ensure uniform water supply before commencement of stress, the potted plants were supplied with the maximum amount of water immediately beforehand by dam irrigation and, after application, transferred in plastic inserts in order to prevent subsequent, excessively rapid drying. The inventive compounds, formulated in the form of wettable powders (WP), wettable granules (WG), suspension concentrates (SC) or emulsion concentrates (EC), were sprayed onto the green parts of the plants as an aqueous suspension at an equivalent water application rate of 600 l/ha with addition of 0.2% wetting agent (agrotin). Substance application was followed immediately by stress treatment of the plants (cold or drought stress). For cold stress treatment, the plants were kept under the following controlled conditions: Drought stress was induced by gradual drying out under the following conditions: “day”: 14 hours with illumination at 26° C. “night”: 10 hours without illumination at 18° C. The duration of the respective stress phases was guided mainly by the state of the untreated, stressed control plants and thus varies from crop to crop. It was ended (by re-irrigating or transfer to a greenhouse with good growth conditions) as soon as irreversible damage is observed on the untreated, stressed control plants. In the case of dicotyledonous crops, for example oilseed rape and soya, the duration of the drought stress phase was between 3 and 5 days, in the case of monocotyledonous crops, for example wheat, barley or corn, between 6 and 10 days. The duration of the cold stress phase varied between 12 and 14 days. The end of the stress phase was followed by an approx. 5-7-day recovery phase, during which the plants were once again kept under good growth conditions in a greenhouse. In order to rule out any influence of the effects observed by any fungicidal action of the test compounds, it was additionally ensured that the tests proceed without fungal infection and without infection pressure. After the recovery phase had ended, the intensities of damage were rated visually compared to untreated, unstressed controls of the same age (in the case of drought stress) or the same growth stage (in the case of cold stress). The intensity of damage was first assessed as a percentage (100%=plants have died, 0%=like control plants). These values were then used to calculate the efficacy of the test compounds (=percentage reduction in the intensity of damage as a result of substance application) by the following formula: [formula] EF: efficacy (%) DVus: damage value of the untreated, stressed control DVts: damage value of the plants treated with test compound The tables below list mean values in each case from three results of the same test. Effects of selected compounds of the formula (I) under drought stress: ZEAMX=Zea mays

NC(=O)c1cccc2[nH]c(C(F)(F)F)nc12 [1-14]
>5%: EF (ZEAMX), efficacy = percentage reduction in the intensity of damage [1] | EF (BRSNS), efficacy = percentage reduction in the intensity of damage [2] | EF (ZEAMX), efficacy = percentage reduction in the intensity of damage [3]

From patent US20110218103A1, “Fluoroalkyl-substituted 2-amidobenzimidazoles” (BAYER CROPSCIENCE AG, priority 2010, published 2011)
